Source: patent publication US20260374782A1, “NEW COMPOUNDS, PROCESSES FOR PREPARING THE SAME AND THEIR USE AS DRUGS” (B&A ONCOMEDICAL, priority 2022, published 2026)

Target: T1, NKCC1 (Homo sapiens, UniProt P55011)
T1 construct: endogenous in cells; host or cells: native HEK293 cells
T1 sequence (P55011 1-1212): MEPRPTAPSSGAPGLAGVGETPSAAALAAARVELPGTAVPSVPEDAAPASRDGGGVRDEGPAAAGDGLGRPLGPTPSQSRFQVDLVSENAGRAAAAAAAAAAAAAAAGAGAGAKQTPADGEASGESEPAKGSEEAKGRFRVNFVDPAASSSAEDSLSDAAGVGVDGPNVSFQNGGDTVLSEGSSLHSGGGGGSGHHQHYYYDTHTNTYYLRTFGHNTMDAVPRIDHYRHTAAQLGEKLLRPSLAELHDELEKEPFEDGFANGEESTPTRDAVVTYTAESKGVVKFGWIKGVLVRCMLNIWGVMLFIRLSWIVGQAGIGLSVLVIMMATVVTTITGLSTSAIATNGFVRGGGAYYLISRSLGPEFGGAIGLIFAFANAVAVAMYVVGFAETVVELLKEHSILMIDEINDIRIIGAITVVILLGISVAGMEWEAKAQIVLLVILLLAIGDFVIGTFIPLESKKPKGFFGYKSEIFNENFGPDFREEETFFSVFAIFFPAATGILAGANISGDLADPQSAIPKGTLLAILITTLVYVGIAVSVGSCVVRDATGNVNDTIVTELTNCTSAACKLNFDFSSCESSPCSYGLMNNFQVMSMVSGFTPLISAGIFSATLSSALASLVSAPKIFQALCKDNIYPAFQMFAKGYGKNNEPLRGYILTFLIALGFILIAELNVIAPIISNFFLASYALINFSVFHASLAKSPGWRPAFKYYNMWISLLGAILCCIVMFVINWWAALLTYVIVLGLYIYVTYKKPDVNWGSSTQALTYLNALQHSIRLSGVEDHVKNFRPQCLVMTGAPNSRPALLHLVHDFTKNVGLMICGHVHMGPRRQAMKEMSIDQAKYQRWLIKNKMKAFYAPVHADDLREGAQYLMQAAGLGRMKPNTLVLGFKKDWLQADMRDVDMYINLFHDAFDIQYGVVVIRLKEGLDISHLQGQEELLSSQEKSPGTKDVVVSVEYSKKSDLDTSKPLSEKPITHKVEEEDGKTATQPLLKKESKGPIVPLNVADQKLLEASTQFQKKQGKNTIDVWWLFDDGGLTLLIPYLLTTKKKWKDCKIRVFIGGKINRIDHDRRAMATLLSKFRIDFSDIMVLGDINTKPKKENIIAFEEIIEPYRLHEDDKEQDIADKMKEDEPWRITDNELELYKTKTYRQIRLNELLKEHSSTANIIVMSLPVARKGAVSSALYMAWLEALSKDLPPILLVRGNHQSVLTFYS
Assay: NKCC1-mediated K+ influx (83Rb tracer uptake) in native HEK293 cells, hypertonic saline, 100 μM ouabain
Assay type: cell-based
Conditions: HEK293, no drug = 1000, 20 μM bumetanide = 0; for inhibition at 2 µM: read-out: NKCC1 mediated flux inhibition at 2 μM (%); for inhibition at 20 µM: read-out: NKCC1 mediated flux inhibition at 20 μM (%)
Procedure, shortened: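 Native cells in slightly hypertonic saline with 100 μM ouabain; 15 min preincubation then 15 min 83Rb uptake (0.25 μCi/mL), scintillation counting normalized to protein. Compounds at 2 μM and 20 μM; flux scaled 1000 (no drug) to 0 (20 μM bumetanide), triplicate dishes.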

Structure (SMILES) | inhibition at 2 µM [%] | inhibition at 20 µM [%]
CCCCNc1cc(C(=O)O)cc(S(=N)(=O)N2Cc3ccccc3C2)c1Oc1ccccc1 (centres unmarked) [Compound 72, 3-(butylamino)-5-(isoindolin-2-ylsulfonimidoyl)-4-phenoxy-benzoic acid] | 50 to 75 | ≥ 75
CCCCNc1cc(C(=O)O)cc(S(=N)(=O)Nc2cnccn2)c1Oc1ccccc1 (centres unmarked) [Compound 73, 3-(butylamino)-4-phenoxy-5-[(pyrazin-2-ylamino)sulfonimidoyl]benzoic acid] | ≥ 75 | ≥ 75
CCCCNc1cc(C(=O)O)cc(S(=N)(=O)Nc2cccc(OC(F)F)c2)c1Oc1ccccc1 (centres unmarked) [Compound 74, 3-(butylamino)-5-[[3-(difluoromethoxy)anilino]sulfonimidoyl]-4-phenoxy-benzoic acid] | 50 to 75 | ≥ 75
CCCCNc1cc(C(=O)O)cc(S(=N)(=O)NC2CCOCC2)c1Oc1ccccc1 (centres unmarked) [Compound 75, 3-(butylamino)-4-phenoxy-5-[(tetrahydropyran-4-ylamino)sulfonimidoyl]benzoic acid] | – | 30 to 50
CCCCNc1cc(C(=O)O)cc(S(=N)(=O)Nc2ncccn2)c1Oc1ccccc1 (centres unmarked) [Compound 76, 3-(butylamino)-4-phenoxy-5-[(pyrimidin-2-ylamino)sulfonimidoyl]benzoic acid] | 10 to 30 | 50 to 75
CCCCNc1cc(C(=O)O)cc(S(=N)(=O)Nc2ccccc2Cl)c1Oc1ccccc1 (centres unmarked) [Compound 77, 3-(butylamino)-5-[(2-chloroanilino)sulfonimidoyl]-4-phenoxy-benzoic acid] | 30 to 50 | ≥ 75
CCCCNc1cc(C(=O)O)cc(S(=N)(=O)Nc2ccc(Cl)cc2)c1Oc1ccccc1 (centres unmarked) [Compound 78, 3-(butylamino)-5-[(4-chloroanilino)sulfonimidoyl]-4-phenoxy-benzoic acid] | 50 to 75 | ≥ 75
CCCCNc1cc(C(=O)O)cc(S(=N)(=O)NC2CCN(C)CC2)c1Oc1ccccc1 (centres unmarked) [Compound 79, 3-(butylamino)-5-[[(1-methyl-4-piperidyl)amino]sulfonimidoyl]-4-phenoxy-benzoic acid] | 30 to 50 | 50 to 75
CCCCNc1cc(C(=O)O)cc(S(=N)(=O)Nc2cncnc2)c1Oc1ccccc1 (centres unmarked) [Compound 80, 3-(butylamino)-4-phenoxy-5-[(pyrimidin-5-ylamino)sulfonimidoyl]benzoic acid] | 30 to 50 | ≥ 75
CCCCNc1cc(C(=O)O)cc(S(=N)(=O)NCCc2ccccc2)c1Oc1ccccc1 (centres unmarked) [Compound 81, 3-(butylamino)-4-phenoxy-5-[(2-phenylethylamino)sulfonimidoyl]benzoic acid] | 30 to 50 | ≥ 75
CCCCNc1cc(C(=O)O)cc(S(=N)(=O)NCCc2cccc(Cl)c2)c1Oc1ccccc1 (centres unmarked) [Compound 82, 3-(butylamino)-5-[[2-(3-chlorophenyl)ethylamino]sulfonimidoyl]-4-phenoxy-benzoic acid] | 10 to 30 | ≥ 75
CCCCNc1cc(C(=O)O)cc(S(=N)(=O)NCc2cccnc2)c1Oc1ccccc1 (centres unmarked) [Compound 83, 3-(butylamino)-4-phenoxy-5-[(3-pyridylmethylamino)sulfonimidoyl]benzoic acid] | 30 to 50 | ≥ 75
CCCCNc1cc(C(=O)O)cc(S(=N)(=O)NCCc2cccnc2)c1Oc1ccccc1 (centres unmarked) [Compound 84, 3-(butylamino)-4-phenoxy-5-[[2-(3-pyridyl)ethylamino]sulfonimidoyl]benzoic acid] | 10 to 30 | ≥ 75
CCCCNc1cc(C(=O)O)cc(S(=N)(=O)NCc2nccs2)c1Oc1ccccc1 (centres unmarked) [Compound 85, 3-(butylamino)-4-phenoxy-5-[(thiazol-2-ylmethylamino)sulfonimidoyl]benzoic acid] | 30 to 50 | ≥ 75
CCCCNc1cc(C(=O)O)cc(S(=N)(=O)NCCc2nccs2)c1Oc1ccccc1 (centres unmarked) [Compound 86, 3-(butylamino)-4-phenoxy-5-[(2-thiazol-2-ylethylamino)sulfonimidoyl]benzoic acid] | 50 to 75 | ≥ 75
CCCCNc1cc(C(=O)O)cc(S(=N)(=O)NCc2ccn(C)n2)c1Oc1ccccc1 (centres unmarked) [Compound 87, 3-(butylamino)-5-[[(1-methylpyrazol-3-yl)methylamino]sulfonimidoyl]-4-phenoxy-benzoic acid] | 50 to 75 | ≥ 75
CCCCNc1cc(C(=O)O)cc(S(=N)(=O)Nc2nccn2C)c1Oc1ccccc1 (centres unmarked) [Compound 88, 3-(butylamino)-5-[[(1-methylimidazol-2-yl)amino]sulfonimidoyl]-4-phenoxy-benzoic acid] | – | 50 to 75
CCCCNc1cc(C(=O)O)cc(S(=N)(=O)Nc2ccccn2)c1Oc1ccccc1 (centres unmarked) [Compound 89, 3-(butylamino)-4-phenoxy-5-[(2-pyridylamino)sulfonimidoyl]benzoic acid] | 30 to 50 | ≥ 75
CCCCNc1cc(C(=O)O)cc(S(=N)(=O)Nc2nccs2)c1Oc1ccccc1 (centres unmarked) [Compound 90, 3-(butylamino)-4-phenoxy-5-[(thiazol-2-ylamino)sulfonimidoyl]benzoic acid] | 30 to 50 | ≥ 75
CCCCNc1cc(C(=O)O)cc(S(=N)(=O)Nc2ccncc2)c1Oc1ccccc1 (centres unmarked) [Compound 91, 3-(butylamino)-4-phenoxy-5-[(4-pyridylamino)sulfonimidoyl]benzoic acid] | 30 to 50 | ≥ 75
CCCCNc1cc(C(=O)O)cc(S(=N)(=O)NC2CCN(C(C)=O)CC2)c1Oc1ccccc1 (centres unmarked) [Compound 92, 3-[[(1-acetyl-4-piperidyl)amino]sulfonimidoyl]-5-(butylamino)-4-phenoxy-benzoic acid] | 10 to 30 | 50 to 75
CCCCNc1cc(C(=O)O)cc(S(=N)(=O)Nc2ccnnc2)c1Oc1ccccc1 (centres unmarked) [Compound 93, 3-(butylamino)-4-phenoxy-5-[(pyridazin-4-ylamino)sulfonimidoyl]benzoic acid] | 30 to 50 | ≥ 75
CCCCNc1cc(C(=O)O)cc(S(=N)(=O)NCCCC)c1Oc1ccccc1 (centres unmarked) [Compound 94, 3-(butylamino)-5-(butylaminosulfonimidoyl)-4-phenoxy-benzoic acid] | 50 to 75 | ≥ 75
CCCCNc1cc(C(=O)O)cc(S(=N)(=O)NC23CC(C2)C3)c1Oc1ccccc1 (centres unmarked) [Compound 95, 3-[(1-bicyclo[1.1.1]pentanylamino)sulfonimidoyl]-5-(butylamino)-4-phenoxy-benzoic acid] | 30 to 50 | 30 to 50
CCCCNc1cc(C(=O)O)cc(S(=N)(=O)NC2CN3CCC2CC3)c1Oc1ccccc1 (centres unmarked) [Compound 96, 3-(butylamino)-4-phenoxy-5-[(quinuclidin-3-ylamino)sulfonimidoyl]benzoic acid] | 30 to 50 | 30 to 50
CCCCNc1cc(C(=O)O)cc(S(=N)(=O)NCC2CCN(C(C)=O)CC2)c1Oc1ccccc1 (centres unmarked) [Compound 97, 3-[[(1-acetyl-4-piperidyl)methylamino]sulfonimidoyl]-5-(butylamino)-4-phenoxy-benzoic acid] | 30 to 50 | ≥ 75
CCCCNc1cc(C(=O)OC)cc(S(=O)(=Nc2ccccc2)N2CCCCCC2)c1Oc1ccccc1 (stereo not drawn) [Compound 99, methyl 3-[S-(azepan-1-yl)-N-phenyl-sulfonimidoyl]-5-(butylamino)-4-phenoxy-benzoate] | 30 to 50 | 10 to 30
CCCCNc1cc(C(=O)O)cc(S(=O)(=NC)N(C)CC)c1Oc1ccccc1 (stereo not drawn) [Compound 100, 3-(butylamino)-5-[S-[ethyl(methyl)amino]-N-methyl-sulfonimidoyl]-4-phenoxybenzoic acid] | – | 30 to 50
